Test system: Exophiala dermatitidis CA01
Experiment: Broth microdilution chequerboard analysis of Lynovex (NM001) in combination with clinical antifungals
Assay type: cell-based
Conditions: for Antifungal MIC100 / Antifungal MIC50: antifungal in isolation; for Antifungal MIC100 / Antifungal MIC100 in Combination: 72 h; for Antifungal MIC100 / Antifungal MIC50 / Antifungal MIC100 in Combination / Antifungal MIC50 in Combination: 35° C.; for FICI: antifungal with Lynovex (NM001), <0.5 Synergy, 0.5-1 Additive, >1 Indifference; for Antifungal MIC100 in Combination / Antifungal MIC50 in Combination: in combination with Lynovex (NM001)
Protocol: The aim of the experiment was to determine the effect of Lynovex (NM001) on the antifungal drug susceptibility of Exophiala dermatitidis CA01. Microtitre plates were prepared following CLSI recommendations for broth microdilution chequerboard method. These plates contained a serial doubling dilution of Lynovex (NM001) combined with serial doubling dilutions of antifungals drugs; Fluconazole, Itraconazole, Caspofungin and Amphotericin B. […] These were incubated at 35° C. and read at 72 h, 96 h, 120 h and 144 h on the BioTek plate reader. […] Three independent E. dermatitidis CA01 cultures were grown on PDA slope for 6 days at 35° C. • 7. Cultures were removed from incubator. 2 ml sterile 0.15M NaCl added to the overnight culture and cells harvested from the surface of the agar. Cells placed in fresh bijou tube. • 8. The cultures were allowed to rest for up to 10 minutes, allowing any hyphae to settle to the bottom. The top layer of conidia was removed into fresh bijou. Hyphae were discarded. • 9. […] This is continued to F12 where 100 μl is removed and discarded. • f. This dilution series was repeated in rows G-H for the remaining 2 cultures • g. Plate read at OD530 on BioTek • h. […] This preparation step occurs in two parts. First, Lynovex (NM001) and antifungals are serially diluted, down and across microtitre plates, respectively. Equal volumes of Lynovex and antifungal are then combined in a fresh microtitre plate, prior to inoculation. […] Stock solutions of Lynovex and antifungals were prepared at 4× desired concentrations. The plate layout at the end of this protocol is the final concentration in the plate following the combination of Lynovex and antifungals and the addition of the inocula. […] All other wells contain 150 μl sterile dH2O. • 9. Serial doubling dilutions are carried out from A to B whereby 150 μl is removed from A and placed into B and mixed well. Then take 150 μl B and place in C and mix well. This is repeated down to row G where the final 150 μl is discarded. […] The same procedure is repeated for the other 4 antifungals, carrying the dilutions across the plate i.e. […] At the final dilution in column 10, the final 150 μl is discarded. […] Inoculating Plates with E. dermatitidis CA01 • 6. Add 100 μl (total volume 200 μl) of the prepared E. dermatitidis CA01 culture to the all wells on the plate except wells H12. […] H12 will contain 100 μl water and 100 μl 2×RPMI-1640 alone, constituting an uninoculated control. • 8. The plate is read in the BioTek at OD530. • 9. Plates are then placed in a plastic box containing a Petri dish of water, sealed and incubated at 35° C. The presence of the water in the dish or on the tissue provides and environment of relatively high humidity. • 10. OD530 is then read at 72 h, 96 h, 120 h and 144 h and raw data processed using Microsoft Excel. • 11. Fractional Inhibitory Concentration (FIC) Index values are generated using MIC100 for 72 h data and MIC50 for later time points using the following formula: […]

Antifungal MIC100 (GEOMEAN): 0.59 µg/mL | Antifungal MIC50 (GEOMEAN, 96 h): 0.47 µg/mL | Antifungal MIC50 (GEOMEAN, 120 h): 0.47 µg/mL | Antifungal MIC50 (GEOMEAN, 144 h): 0.59 µg/mL | Antifungal MIC100 in Combination (GEOMEAN): 0.23 µg/mL | Antifungal MIC50 in Combination (GEOMEAN, 96 h): 0.17 µg/mL | Antifungal MIC50 in Combination (GEOMEAN, 120 h): 0.19 µg/mL | Antifungal MIC50 in Combination (GEOMEAN, 144 h): 0.23 µg/mL | Antifungal MIC100 (MEAN): 0.86 µg/mL | Antifungal MIC50 (MEAN, 96 h): 0.47 µg/mL | Antifungal MIC50 (MEAN, 120 h): 0.47 µg/mL | Antifungal MIC50 (MEAN, 144 h): 0.63 µg/mL | Antifungal MIC100 in Combination (MEAN): 0.23 µg/mL | Antifungal MIC50 in Combination (MEAN, 96 h): 0.18 µg/mL | Antifungal MIC50 in Combination (MEAN, 120 h): 0.20 µg/mL | Antifungal MIC50 in Combination (MEAN, 144 h): 0.23 µg/mL | Antifungal MIC100 (Range): 0.23 to 1.88 µg/mL | Antifungal MIC50 (Range, 96 h): 0.47 µg/mL | Antifungal MIC50 (Range, 120 h): 0.5 µg/mL | Antifungal MIC50 (Range, 144 h): 0.47 to 0.94 µg/mL | Antifungal MIC100 in Combination (Range): 0.23 µg/mL | Antifungal MIC50 in Combination (Range, 96 h): 0.12 to 0.23 µg/mL | Antifungal MIC50 in Combination (Range, 120 h): 0.12 to 0.23 µg/mL | Antifungal MIC50 in Combination (Range, 144 h): 0.23 µg/mL
Compound: C[C@@H]1[C@H](O)[C@@H](C)/C=C/C=C/C=C/C=C/C=C/C=C/C=C/[C@H](O[C@@H]2O[C@H](C)[C@@H](O)[C@H](N)[C@@H]2O)C[C@@H]2O[C@](O)(C[C@@H](O)C[C@@H](O)[C@H](O)CC[C@@H](O)C[C@@H](O)CC(=O)O[C@H]1C)C[C@H](O)[C@H]2C(=O)O [Amphotericin B]
FICI (GEOMEAN, MIC50, 96 h): 0.63 (2) | FICI (GEOMEAN, MIC50, 120 h): 0.58 (3) | FICI (GEOMEAN, MIC50, 144 h): 0.75 (2) | FICI (GEOMEAN, MIC100, 72 h): 0.53 (1) | FICI (MEAN, MIC50, 96 h): 0.64 (2) | FICI (MEAN, MIC50, 120 h): 0.59 (3) | FICI (MEAN, MIC50, 144 h): 0.75 (2) | FICI (MEAN, MIC100, 72 h): 0.53 (1)
